As a reminder, the LD50 is the dose at which mortality reaches 50%.

This is an account of results in patent US4190665A, “Substituted arylaliphatic acids” (Lipha, Lyonnaise Industrielle Pharmaceutique, priority 1976, dated 1980).

Data set [1] is described as follows: LD50, orally, mouse (acute toxicity). The following applies: in vivo, po.
Data set [2] concerns edema triggered by injecting a carrageenin suspension into the sole of the foot of the rat. The data set can be described thus: carrageenin-induced edema test (Winter and Risley), anti-inflammatory effect. In kind it is in vivo. The following applies: po, orally, read-out: AD30 orally (active dose 30, inhibiting edema development by 30%). As for the experimental part: (§1) The anti-inflammatory effect of the new drugs was determined in two tests.
(a) In the carrageenin-induced edema test according to Winter, C. A. and Risley, E. A. (Proc. Soc. Exp. Biol. Med. 1962, 111, 544-547) the protection conferred by the drug administered orally to the rat against an edema triggered by injecting a carrageenin suspension into the sole of the foot of the rat was investigated. The table below gives the "active dose 30" (inhibiting edema development by 30%) of both compounds.
A general note: Carrageenan injected into the paw causes an acute inflammation.

In data set [3] the test system is erythema (produced by exposure to ultraviolet radiation) of the shaved back of the guinea pig. The data set is described as follows: UV erythema test on the guinea pig (Winder et al.), anti-inflammatory effect. The class given is in vivo, albino guinea pig. The conditions noted are these: Cavia porcellus, po, orally, read-out: Active Dose 50 (decreased erythema by 50%). As for the experimental part:
as §1
(b) In the UV erythema test on the guinea pig (Winder, C. V., Wax, J., Burr, V., Been, M., Rosiere, C. E., Arch. Int. Pharmacodyn., 116, 261, 1958) the protective activity against precocious inflammation in the albino guinea pig was investigated. A determination was made of the active dose 50 which, administered orally to the animal, decreased erythema (produced by exposure to ultraviolet radiation) of the shaved back of the guinea pig by 50%.

The test system of data set [4] is painful contractures, caused by intraperitoneal injection of a dilute acetic acid solution. The data set is described as follows: analgesic activity in the mouse by the method of Koster (acetic acid contractures). In kind it is in vivo. The conditions noted are these: po, orally, read-out: Active Dose 50 (diminished painful contractures by 50%). The source says:
The analgesic activity can be determined in the mouse by the method of Koster, R., Anderson, M., Debeer, E. J., Federation Proc., 1959, 18, 412. A determination was made of the active dose 50 of the drug which, administered orally, diminished painful contractures, caused by intraperitoneal injection of a dilute acetic acid solution, by 50%.

`CC(C(=O)O)c1ccc(-n2cccc2)c([N+](=O)[O-])c1` (centres unmarked) [Compound A, 2-(3'-nitro-4'-[1"-pyrrolyl]phenyl) propionic acid] showed an LD50 in data set [1] of 3200 mg/kg. Also, the ED30 in data set [2] was found to be 12 mg/kg. The ED50 in data set [3] is 18.4 mg/kg; in data set [4], 50 mg/kg.
For `CC(C(=O)O)c1ccc(-n2cccc2)c(N)c1` (centres unmarked) [Compound B, 2-(3'-amino-4'-[1"-pyrrolyl]phenyl) propionic acid] the same measures were 3000 mg/kg, 12 mg/kg, 4.7 mg/kg and 19 mg/kg.
